Test: xn = mol fraction of the nth substance listed

CCCCCCCCCCO + CO
viscosity [mPa·s], 101 kPa
Conditions | 298.15 K | 308.15 K | 318.15 K
x2 = 0.05 | 10.38 | 7.137 | 5.136
x2 = 0.1 | 9.75 | 6.75 | 4.899
x2 = 0.15 | 9.096 | 6.352 | 4.649
x2 = 0.2 | 8.429 | 5.944 | 4.39
x2 = 0.25 | 7.757 | 5.531 | 4.121
x2 = 0.3 | 7.086 | 5.115 | 3.847
x2 = 0.35 | 6.425 | 4.699 | 3.567
x2 = 0.4 | 5.779 | 4.287 | 3.285
x2 = 0.45 | 5.154 | 3.88 | 3.003
x2 = 0.5 | 4.554 | 3.481 | 2.721
x2 = 0.55 | 3.984 | 3.093 | 2.443
x2 = 0.6 | 3.448 | 2.719 | 2.171
x2 = 0.65 | 2.947 | 2.36 | 1.905
x2 = 0.7 | 2.485 | 2.02 | 1.649
x2 = 0.75 | 2.063 | 1.7 | 1.405
x2 = 0.8 | 1.681 | 1.403 | 1.174
x2 = 0.85 | 1.34 | 1.131 | 0.958
x2 = 0.9 | 1.038 | 0.886 | 0.76
x2 = 0.95 | 0.776 | 0.669 | 0.582

CCCCCCCCCCCC + COC(=O)OC
298.15 K, 101.3 kPa
Conditions | viscosity [mPa·s]
x2 = 0.0451 | 1.266
x2 = 0.0943 | 1.206
x2 = 0.1375 | 1.157
x2 = 0.225 | 1.079
x2 = 0.3467 | 0.977
x2 = 0.4784 | 0.877
x2 = 0.6212 | 0.775
x2 = 0.7364 | 0.697
x2 = 0.8599 | 0.633
x2 = 0.9441 | 0.602

CCCCCCCCCCO + COC(=O)OC
viscosity [mPa·s], 100 kPa
Conditions | x2 = 0.1001 | x2 = 0.2001 | x2 = 0.3 | x2 = 0.4 | x2 = 0.5002 | x2 = 0.6 | x2 = 0.7001 | x2 = 0.8 | x2 = 0.9
303.15 K | 7.04 | 5.107 | 3.812 | 2.818 | 2.121 | 1.582 | 1.196 | 0.901 | 0.683
308.15 K | 5.988 | 4.394 | 3.309 | 2.477 | 1.885 | 1.423 | 1.084 | 0.831 | 0.637
313.15 K | 5.091 | 3.804 | 2.897 | 2.191 | 1.686 | 1.288 | 0.991 | 0.772 | 0.596
318.15 K | 4.385 | 3.313 | 2.552 | 1.953 | 1.519 | 1.167 | 0.913 | 0.716 | 0.559
323.15 K | 3.777 | 2.903 | 2.258 | 1.751 | 1.37 | 1.069 | 0.843 | 0.667 | 0.526

CCOC(=O)OCC + COC(=O)OC
298.15 K, 101 kPa
Conditions | viscosity [mPa·s]
x1 = 0.0355 | 0.585
x1 = 0.0848 | 0.594
x1 = 0.1396 | 0.603
x1 = 0.2098 | 0.615
x1 = 0.2886 | 0.628
x1 = 0.3619 | 0.641
x1 = 0.4542 | 0.657
x1 = 0.5424 | 0.672
x1 = 0.6375 | 0.689
x1 = 0.7315 | 0.706
x1 = 0.838 | 0.726
x1 = 0.8896 | 0.736
x1 = 0.9462 | 0.747

COCCOCCO + COC(=O)OC
298.15 K, 101.33 kPa
Conditions | viscosity [mPa·s]
x1 = 0.0093 | 0.598
x1 = 0.0245 | 0.612
x1 = 0.037 | 0.623
x1 = 0.0694 | 0.655
x1 = 0.0966 | 0.685
x1 = 0.1283 | 0.723
x1 = 0.1675 | 0.774
x1 = 0.1922 | 0.806
x1 = 0.2198 | 0.848
x1 = 0.3005 | 0.984
x1 = 0.3454 | 1.069
x1 = 0.3786 | 1.142
x1 = 0.3835 | 1.154
x1 = 0.4083 | 1.214
x1 = 0.4365 | 1.284
x1 = 0.4695 | 1.364
x1 = 0.5345 | 1.538
x1 = 0.584 | 1.681
x1 = 0.623 | 1.803
x1 = 0.6563 | 1.916
x1 = 0.7394 | 2.226
x1 = 0.7818 | 2.402
x1 = 0.8262 | 2.598
x1 = 0.8705 | 2.802
x1 = 0.8876 | 2.889
x1 = 0.9134 | 3.004
x1 = 0.9327 | 3.098
x1 = 0.9669 | 3.272

CCC#N + COC(C)=O
303.15 K, 101.33 kPa
Conditions | viscosity [mPa·s]
x1 = 0.1119 | 0.35
x1 = 0.2022 | 0.3551
x1 = 0.2958 | 0.3608
x1 = 0.4008 | 0.3657
x1 = 0.4952 | 0.3692
x1 = 0.5946 | 0.3732
x1 = 0.6967 | 0.3773
x1 = 0.7985 | 0.3811
x1 = 0.9022 | 0.3857

Cc1ccccc1C + COCCO
viscosity [mPa·s], 101 kPa
Conditions | 298.15 K | 308.15 K
x2 = 0.0517 | 0.769 | 0.666
x2 = 0.1491 | 0.795 | 0.686
x2 = 0.2491 | 0.83 | 0.714
x2 = 0.3509 | 0.877 | 0.749
x2 = 0.4485 | 0.934 | 0.79
x2 = 0.4919 | 0.963 | 0.811
x2 = 0.5537 | 1.009 | 0.845
x2 = 0.6432 | 1.088 | 0.901
x2 = 0.7525 | 1.206 | 0.983
x2 = 0.8492 | 1.334 | 1.07
x2 = 0.9547 | 1.506 | 1.185

OCCOCCOCCO + COCCO
viscosity [mPa·s], 101 kPa
Conditions | 293.15 K | 298.15 K | 303.15 K
x2 = 0.0555 | 35.94 | 30.26 | 26.08
x2 = 0.1005 | 32.08 | 27.25 | 23.69
x2 = 0.1526 | 27.98 | 24.06 | 21.13
x2 = 0.201 | 24.53 | 21.36 | 18.93
x2 = 0.2544 | 21.12 | 18.65 | 16.69
x2 = 0.3016 | 18.45 | 16.49 | 14.87
x2 = 0.3421 | 16.37 | 14.79 | 13.44
x2 = 0.4006 | 13.74 | 12.58 | 11.54
x2 = 0.4493 | 11.83 | 10.95 | 10.13
x2 = 0.4936 | 10.3 | 9.622 | 8.98
x2 = 0.5499 | 8.592 | 8.124 | 7.664
x2 = 0.6007 | 7.271 | 6.95 | 6.621
x2 = 0.6501 | 6.157 | 5.943 | 5.714
x2 = 0.7042 | 5.105 | 4.973 | 4.825
x2 = 0.7531 | 4.289 | 4.207 | 4.115
x2 = 0.7931 | 3.714 | 3.65 | 3.584
x2 = 0.8455 | 3.061 | 2.991 | 2.954
x2 = 0.9009 | 2.487 | 2.385 | 2.346
x2 = 0.95 | 2.069 | 1.924 | 1.856

— the CheMixHub viscosity set
